Source: BigSolDB 2.1

With `O=C[C@H](O)[C@@H](O)[C@H](O)[C@H](O)CO` the solubility (mole fraction) (in n-decanol, 348.15 K) was 0.000902, the solubility (mole fraction) (in n-decanol, 353.15 K) was 0.000984 and the solubility (mole fraction) (in n-decanol, 357.15 K) was 0.00119. It also gave a solubility (mole fraction) (in n-decanol, 367.15 K) of 0.00154, a solubility (mole fraction) (in n-decanol, 372.15 K) of 0.00178 and a solubility (mole fraction) (in n-decanol, 377.15 K) of 0.00204. For the same compound, the solubility (mole fraction) (in n-decanol, 382.15 K) was 0.00239, the solubility (mole fraction) (in n-decanol, 387.15 K) was 0.00264 and the solubility (mole fraction) (in n-decanol, 392.15 K) was 0.00327. It also gave a solubility (mole fraction) (in n-dodecanol, 349.15 K) of 0.000762, a solubility (mole fraction) (in n-dodecanol, 355.15 K) of 0.000802 and a solubility (mole fraction) (in n-dodecanol, 360.15 K) of 0.000865. The solubility (mole fraction) (in n-dodecanol, 365.15 K) was 0.0011, the solubility (mole fraction) (in n-dodecanol, 370.15 K) was 0.0013 and the solubility (mole fraction) (in n-dodecanol, 375.15 K) was 0.0014. It also gave a solubility (mole fraction) (in n-dodecanol, 382.15 K) of 0.00156, a solubility (mole fraction) (in n-dodecanol, 387.15 K) of 0.00186 and a solubility (mole fraction) (in n-dodecanol, 393.15 K) of 0.00203. For the same compound, the solubility (mole fraction) (in n-octanol, 345.15 K) was 0.00098, the solubility (mole fraction) (in n-octanol, 355.15 K) was 0.00153 and the solubility (mole fraction) (in n-octanol, 364.15 K) was 0.00192. For the same compound, the solubility (mole fraction) (in n-octanol, 369.15 K) was 0.00228, the solubility (mole fraction) (in n-octanol, 374.15 K) was 0.00241 and the solubility (mole fraction) (in n-octanol, 379.15 K) was 0.0029. The solubility (mole fraction) (in n-octanol, 383.15 K) was 0.00341.
